Assay results from patent US7410965B2, “Delayed release pharmaceutical composition containing 1-dimethyl-amino-3-(3-methoxyphenyl)-2-methyl-pentan-3-ol” (Gruenenthal GmbH, priority 2002, dated 2008).
Marks after values point to notes of the source that are not given here.

Test system: female Sprague-Dawley rats
Assay: Cystometry test system on conscious fresh rats
Format: in vivo, rat
Details: for BC Bladder Capacity, change compared to the baseline value / ICI Inter-Contraction Interval, change compared to the baseline value / TP Threshold Pressure, change compared to the baseline value: effect maximum; for effect on the bladder regulation (in words): cystometry, iv
Method: Cystometry investigations were carried out on fresh female Sprague-Dawley rats according to the method of Ishizuka et al. ((1997), Naunyn-Schmiedeberg's Arch. Pharmacol. 355: 787-793). Three days after implantation of bladder and venous catheters the animals were investigated in the conscious state while freely moving. The bladder catheter was connected to a pressure gauge and an injection pump. The animals were placed in metabolic cages that enabled the volume of urine to be measured. Physiological saline solution was infused (10 ml/hour) into the emptied bladder and the bladder pressure and volume of urine were continuously recorded. After a stabilisation phase a 20-minute phase was recorded that was characterised by normal, reproducible micturition cycles. The following parameters among others were measured: • threshold pressure TP, bladder pressure immediately before micturition, • bladder capacity BC, residual volume after prior micturition plus volume of infused solution during the filling phase, • intercontraction interval ICI, i.e. the time interval between consecutive micturition.
An increase in the threshold pressure (TP) indicates an important therapeutic effect in one of the medical conditions covered by the invention. Also, the intercontraction interval (ICI) is an important parameter for measuring the physiological effectiveness of a substance in the treatment of urinary incontinence, as is the bladder capacity (BC). In this connection, on account of the widely differing causes of the symptoms of these disease patterns it is not necessary to influence positively all three parameters in order for a medicament to be effective.
After recording three reproducible micturition cycles to provide a baseline value, the test substances (1 (1.0 mg/kg), 2 (0.1; 0.3 and 0.5 mg/kg) and 21 (0.5 mg/kg), in a vehicle comprising 0.9% NaCl were applied intravenously and the effect on the cystometric parameters was recorded at 90 to 120 minutes. In the effect maximum the mean value of 3 micturition cycles was determined and recorded as a percentage change compared to the baseline value (Table 1).

SMILES	BC Bladder Capacity, change compared to the baseline value (0.1 mg/kg iv)	ICI Inter-Contraction Interval, change compared to the baseline value (0.1 mg/kg iv)	TP Threshold Pressure, change compared to the baseline value (0.1 mg/kg iv)	BC Bladder Capacity, change compared to the baseline value (0.3 mg/kg iv)	ICI Inter-Contraction Interval, change compared to the baseline value (0.3 mg/kg iv)	TP Threshold Pressure, change compared to the baseline value (0.3 mg/kg iv)	BC Bladder Capacity, change compared to the baseline value (0.5 mg/kg iv)	ICI Inter-Contraction Interval, change compared to the baseline value (0.5 mg/kg iv)	TP Threshold Pressure, change compared to the baseline value (0.5 mg/kg iv)	effect on the bladder regulation (in words)	BC Bladder Capacity, change compared to the baseline value (1.0 mg/kg iv)	ICI Inter-Contraction Interval, change compared to the baseline value (1.0 mg/kg iv)	TP Threshold Pressure, change compared to the baseline value (1.0 mg/kg iv)
CC[C@](O)(c1cccc(OC)c1)[C@H](C)CN(C)C.Cl [Compound 2, (+)-(2R,3R)-1-dimethylamino-3-(3-methoxyphenyl)-2-methylpentan-3-ol; hydrochloride]	+7.8%	+15.6%	+28.5%**	+33%*	+28%*	+122%**	+20.6%*	+28.6%**	+77.5%**	very effective			
CC[C@](O)(c1cccc(OC)c1)[C@H](C)CN(C)C.Cl (racemic) [Compound 1, (2RS,3RS)-1-dimethylamino-3-(3-methoxyphenyl)-2-methylpentan-3-ol; hydrochloride]											+31%***	+42%	+94%**
CC[C@@](O)(c1cccc(OC)c1)[C@@H](C)CN(C)C.Cl [Compound 21, (−)-(2S,3S)-1-dimethylamino-3-(3-methoxyphenyl)-2-methylpentan-3-ol; hydrochloride]							+3%	+10%	−1.1%	does not exhibit such a marked effect			
